Source: patent US20230339978A1, “COMPOUNDS FOR PREVENTION OR TREATMENT OF NEURODEGENERATIVE DISORDERS” (1ST Biotherapeutics, Inc., priority 2020, published 2023)

Tests used:
[1] = biological target: GST-tagged recombinant human RIPK2 (Homo sapiens (Human), UniProt O43353); experiment: RIP2 Kinase Assay (ADP-Glo); assay type: biochemical; settings: 25 µM ATP, MBP substrate, 30° C. 60 minutes
Experimental: GST-tagged recombinant human RIPK2(25 ng) is incubated with 5 µL of compounds (0.5% DMSO), 5 µL of MBP (0.5 µg/µl) and 5 µL of ATP (25 µM) in buffer (40 mM Tris, 7.5; 20 mM MgCl2; 0.1 mg/ml BSA; 50 µM DTT). The assay was started by incubating the reaction mixture in a 96-well plate at 30° C. for 60 minutes. After the incubation, 25 µL ADP-Glo reagent was added, and the reaction was incubated at 30° C. for 40 minutes to stop the reaction and degrade residual ATP. The ADP product was then converted to ATP by adding 50 µL per well of detection reagent. Luminescence was detected after 30 minutes room temperature incubation with the Molecular device I3X plate reader. The IC50 values were calculated from a series of percent inhibition values determined at a range of inhibitor concentration using software routines as implemented in the GraphPad Prism 7 software or SigmaPlot 13.0.

[2] = system: IL-6 secretion in BV-2 cell; experiment: IL-6 Secretion in BV-2 Cell (L18-MDP stimulated, ELISA); assay type: cell-based; settings: BV-2 mouse microglia cells, 10 µg/ml L18-MDP, 24 hr
Experimental: IL-6 Secretion in BV-2 Cell
BV-2 mouse microglia cells were kindly provided from Dr. Bae in Korea Institute of Science and Technology (KIST). BV-2 cells were thawed and suspended in Dulbecco’s modified eagle medium (DMEM) supplemented with 10% fetal bovine serum (FBS) and 1% Penicillin/Streptomycin. Cells were seeded into 96 well plates at 2X10^4 cells/well and allowed to attach for 24 hr. On the day of the experiment, various concentration of compounds were treated, and cells were stimulated with 10 µg/ml L18-MDP. After 24 hr incubation, supernatant was collected for cytokine assay.
Absorbance at 450 nm was measured using SpectraMax I3X microplate reader (Molecular Device). Values of media-only wells were subtracted and % inhibition for each compound concentration relative to the DMSO/L18-MDP-treated controls (100%) was calculated.

[3] = biological target: His-tagged recombinant human ABL1 (Homo sapiens (Human), UniProt P00519); settings: read-out: c-Abl IC50; 25 µM ATP, Abltide substrate, 30° C. 30-min
Sequence of His-tagged recombinant human ABL1 (P00519 whole entry): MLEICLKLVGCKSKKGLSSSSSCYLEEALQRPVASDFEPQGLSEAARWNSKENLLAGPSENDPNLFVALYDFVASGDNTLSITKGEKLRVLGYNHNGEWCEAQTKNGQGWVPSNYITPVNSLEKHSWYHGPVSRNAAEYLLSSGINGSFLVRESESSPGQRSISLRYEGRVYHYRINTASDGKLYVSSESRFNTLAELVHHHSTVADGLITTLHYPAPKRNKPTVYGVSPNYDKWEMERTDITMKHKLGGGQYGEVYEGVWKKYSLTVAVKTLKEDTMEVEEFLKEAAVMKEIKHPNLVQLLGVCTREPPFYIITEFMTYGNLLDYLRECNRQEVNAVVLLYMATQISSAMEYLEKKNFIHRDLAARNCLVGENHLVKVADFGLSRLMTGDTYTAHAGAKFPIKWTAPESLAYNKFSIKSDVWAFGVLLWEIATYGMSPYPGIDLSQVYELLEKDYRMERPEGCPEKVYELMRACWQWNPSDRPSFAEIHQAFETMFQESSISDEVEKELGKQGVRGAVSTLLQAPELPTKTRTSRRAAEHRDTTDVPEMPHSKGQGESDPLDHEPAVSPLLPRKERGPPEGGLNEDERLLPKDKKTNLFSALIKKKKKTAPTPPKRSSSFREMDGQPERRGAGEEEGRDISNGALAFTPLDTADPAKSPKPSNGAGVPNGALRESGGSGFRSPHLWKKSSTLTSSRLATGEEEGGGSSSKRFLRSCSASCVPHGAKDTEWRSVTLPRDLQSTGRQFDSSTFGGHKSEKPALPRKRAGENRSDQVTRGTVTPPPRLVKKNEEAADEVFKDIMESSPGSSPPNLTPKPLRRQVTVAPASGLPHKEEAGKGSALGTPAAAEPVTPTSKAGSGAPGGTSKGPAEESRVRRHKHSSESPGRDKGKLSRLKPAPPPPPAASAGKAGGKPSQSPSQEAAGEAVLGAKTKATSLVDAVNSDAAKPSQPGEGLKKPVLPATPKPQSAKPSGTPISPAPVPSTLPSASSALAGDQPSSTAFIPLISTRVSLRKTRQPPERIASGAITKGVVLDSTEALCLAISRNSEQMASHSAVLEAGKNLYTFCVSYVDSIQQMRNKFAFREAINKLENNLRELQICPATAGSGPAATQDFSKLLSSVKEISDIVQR
Experimental: ADP-Glo assay kit was purchased from Promega. Magnesium chloride (MgCl2), bovine serum albumin (BSA), ethylene glycol-bis(β-aminoethyl ether)-N,N,N′,N′-tetraacetic acid (EGTA), tween-20, 1,4-dithiothreitol (DTT) and dimethyl sulfoxide (DMSO) were purchased from Sigma-Aldrich. HEPES buffer was purchased from Gibco. ABL1 kinase and Abltide were purchased from Signalchem.
c-Abl kinase activity was measured by Promega’s ADP-Glo ® Assay. In this assay, His-tagged recombinant human ABL1 (0.25 ng/µl) is incubated with 5 µL of compounds (0.5% DMSO), 5 µL of Abltide (0.01 µg/µl) and 5 µL of ATP (25 µM) in buffer (50 mM HEPES,7.5; 10 mM MgCl2; 1 mM EGTA; 0.05% BSA; 0.01% Tween-20; 2 mM DTT.). The assay was started by incubating the reaction mixture in a 96-well plate at 30° C. for 30-min. After the incubation, 25 µL ADP-Glo reagent was added and the reaction was incubated at room temperature for 40-min to stop the reaction and degrade residual ATP. The ADP product was then converted to ATP by adding 50 µL per well of detection reagent. Luminescence was detected after 30-min room temperature incubation with the Molecular device I3X plate reader. The IC50 values were calculated from a series of percent inhibition values determined at a range of inhibitor concentration using software routines as implemented in the GraphPad Prism 7 software and Sigma Plot 13.0.

Sequence of GST-tagged recombinant human RIPK2 (O43353 whole entry): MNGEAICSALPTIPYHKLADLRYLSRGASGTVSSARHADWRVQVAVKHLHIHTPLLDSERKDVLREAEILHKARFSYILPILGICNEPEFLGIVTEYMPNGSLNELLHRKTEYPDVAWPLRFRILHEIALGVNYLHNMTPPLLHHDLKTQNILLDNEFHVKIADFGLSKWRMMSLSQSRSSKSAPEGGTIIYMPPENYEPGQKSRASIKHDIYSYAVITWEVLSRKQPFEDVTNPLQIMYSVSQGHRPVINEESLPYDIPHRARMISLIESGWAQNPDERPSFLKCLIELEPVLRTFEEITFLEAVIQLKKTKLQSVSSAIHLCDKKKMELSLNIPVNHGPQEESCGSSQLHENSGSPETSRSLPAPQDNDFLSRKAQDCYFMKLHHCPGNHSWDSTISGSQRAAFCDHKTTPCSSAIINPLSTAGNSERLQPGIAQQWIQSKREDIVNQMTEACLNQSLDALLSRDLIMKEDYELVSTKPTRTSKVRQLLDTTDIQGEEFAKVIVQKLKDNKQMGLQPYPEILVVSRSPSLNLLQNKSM

Row | Compound | IC50 [1] [nM] | IC50 [2] [nM] | IC50 [3] [nM]
1 | COc1c(-c2ccn3nc(NC(=O)[C@@H]4C[C@@H]4F)cc3c2)cnc2[nH]ccc12 [Example 6, (1S,2S)-2-fluoro-N-(5-(4-methoxy-1H-pyrrolo[2,3-b]pyridin-5-yl)pyrazolo[1,5-a]pyridin-2-yl)cyclopropane-1-carboxamide] | 168 | 806 | 9
2 | Cc1cc2cc(-c3ccn4nc(NC(=O)[C@@H]5C[C@@H]5F)cc4c3)cnc2[nH]1 [Example 8, (1S,2S)-2-fluoro-N-(5-(2-methyl-1H-pyrrolo[2,3-b]pyridin-5-yl)pyrazolo[1,5-a]pyridin-2-yl)cyclopropane-1-carboxamide] | 84.3 | 625 | 4
3 | N#Cc1c(-c2ccn3nc(NC(=O)[C@@H]4C[C@@H]4F)cc3c2)cnc2[nH]ccc12 [Example 17, (1S,2S)-N-(5-(4-cyano-1H-pyrrolo[2,3-b]pyridin-5-yl)pyrazolo[1,5-a]pyridin-2-yl)-2-fluorocyclopropane-1-carboxamide] | 70.2 | – | 20.2
4 | CSc1c(-c2ccn3nc(NC(=O)[C@@H]4C[C@@H]4F)cc3c2)cnc2[nH]ccc12 [Example 14, (1S,2S)-2-fluoro-N-(5-(4-(methylthio)-1H-pyrrolo[2,3-b]pyridin-5-yl)pyrazolo[1,5-a]pyridin-2-yl)cyclopropane-1-carboxamide] | 195 | – | 12.2
5 | Nc1c(-c2ccn3nc(NC(=O)[C@@H]4C[C@@H]4F)cc3c2)cnc2[nH]ccc12 [Example 10, (1S,2S)-N-(5-(4-amino-1H-pyrrolo[2,3-b]pyridin-5-yl)pyrazolo[1,5-a]pyridin-2-yl)-2-fluorocyclopropane-1-carboxamide] | 91.5 | 3940 | 54.2
6 | O=C(Nc1cc2cc(-c3cnc4[nH]ccc4c3F)ccn2n1)[C@@H]1C[C@@H]1F [Example 5, (1 S,2S)-2-fluoro-N-(5-(4-fluoro-1 H-pyrrolo[2,3-b]pyridin-5-yl)pyrazolo[1,5-a]pyridin-2-yl)cyclopropane-1-carboxamide] | 48.4 | 600 | 11.2
7 | CC(C)c1c(-c2ccn3nc(NC(=O)[C@@H]4C[C@@H]4F)cc3c2)cnc2[nH]ccc12 [Example 15, (1S,2S)-2-fluoro-N-(5-(4-isopropyl-1H-pyrrolo[2,3-b]pyridin-5-yl)pyrazolo[1,5-a]pyridin-2-yl)cyclopropane-1-carboxamide] | 828 | – | 159
8 | O=C(Nc1cc2cc(-c3cnc4[nH]ccc4c3C3CC3)ccn2n1)[C@@H]1C[C@@H]1F [Example 16, (1S,2S)-N-(5-(4-cyclopropyl-1 H-pyrrolo[2,3-b]pyridin-5-yl)pyrazolo[1,5-a]pyridin-2-yl)-2-fluorocyclopropane-1-carboxamide] | 204 | – | 13
9 | CCc1c(-c2ccn3nc(NC(=O)[C@@H]4C[C@@H]4F)cc3c2)cnc2[nH]ccc12 [Example 13, (1S,2S)-N-(5-(4-ethyl-1H-pyrrolo[2,3-b]pyridin-5-yl)pyrazolo[1,5-a]pyridin-2-yl)-2-fluorocyclopropane-1-carboxamide] | 129 | – | 12.3

The next compounds have a lower IC50 [1] than those just listed; values first:

Row | IC50 [1] [nM] | IC50 [2] [nM] | IC50 [3] [nM] | Compound
10 | 33.4 | 654 | 3.2 | O=C(Nc1cc2cc(-c3cnc4[nH]cc(Cl)c4c3)ccn2n1)[C@@H]1C[C@@H]1F [Example 11, (1S,2S)-N-(5-(3-chloro-1H-pyrrolo[2,3-b]pyridin-5-yl)pyrazolo[1,5-a]pyridin-2-yl)-2-fluorocyclopropane-1-carboxamide]
11 | 32.2 | – | 1.7 | Cc1c(-c2ccn3nc(NC(=O)[C@@H]4C[C@@H]4F)cc3c2)cnc2[nH]cc(Cl)c12 [Example 25, (1S,2S)-N-(5-(3-chloro-4-methyl-1H-pyrrolo[2,3-b]pyridin-5-yl)pyrazolo[1,5-a]pyridin-2-yl)-2-fluorocyclopropane-1-carboxamide]
12 | 30.5 | – | 3.6 | O=C(Nc1cc2cc(-c3cnc4[nH]c(Cl)cc4c3)ccn2n1)[C@@H]1C[C@@H]1F [Example 18, (1S,2S)-N-(5-(2-chloro-1H-pyrrolo[2,3-b]pyridin-5-yl)pyrazolo[1,5-a]pyridin-2-yl)-2-fluorocyclopropane-1-carboxamide]
13 | 21.5 | – | 13.9 | O=C(Nc1cc2cc(-c3cnc4[nH]ccc4c3Cl)ccn2n1)[C@H]1C[C@H]1F [Example 28, (1R,2R)-N-(5-(4-chloro-1H-pyrrolo[2,3-b]pyridin-5-yl)pyrazolo[1,5-a]pyridin-2-yl)-2-fluorocyclopropane-1-carboxamide]
14 | 19.9 | – | 9.2 | O=C(Nc1cc2cc(-c3cnc4[nH]ccc4c3Cl)ccn2n1)C1CC1 [Example 23, N-(5-(4-chloro-1H-pyrrolo[2,3-b]pyridin-5-yl)pyrazolo[1,5-a]pyridin-2-yl)cyclopropanecarboxamide]
15 | 16.1 | – | 19.4 | O=C(Nc1cc2cc(-c3cnc4[nH]ccc4c3Cl)ccn2n1)[C@@H]1C[C@H]1F [Example 26, (1S,2R)-N-(5-(4-chloro-1H-pyrrolo[2,3-b]pyridin-5-yl)pyrazolo[1,5-a]pyridin-2-yl)-2-fluorocyclopropane-1-carboxamide]
16 | 15.1 | 162 | 12.4 | O=C(Nc1cc2cc(-c3cnc4[nH]ccc4c3Cl)ccn2n1)[C@H]1C[C@@H]1F [Example 27, (1R,2S)-N-(5-(4-chloro-1H-pyrrolo[2,3-b]pyridin-5-yl)pyrazolo[1,5-a]pyridin-2-yl)-2-fluorocyclopropane-1-carboxamide]
17 | 14.9 | 75.7 | 2.9 | Cc1c(-c2ccn3nc(NC(=O)[C@@H]4C[C@@H]4F)cc3c2)cnc2[nH]cc(F)c12 [Example 24, (1S,2S)-2-fluoro-N-(5-(3-fluoro-4-methyl-1H-pyrrolo[2,3-b]pyridin-5-yl)pyrazolo[1,5-a]pyridin-2-yl)cyclopropane-1-carboxamide]
18 | 13.9 | 351 | 1.2 | O=C(Nc1cc2cc(-c3cc4cc[nH]c4nc3Cl)ccn2n1)[C@@H]1C[C@@H]1F [Example 4, (1S,2S)-N-(5-(6-chloro-1H-pyrrolo[2,3-b]pyridin-5-yl)pyrazolo[1,5-a]pyridin-2-yl)-2-fluorocyclopropane-1-carboxamide]
19 | 10.2 | 107 | 7.2 | O=C(Nc1cc2cc(-c3cnc4[nH]cc(F)c4c3Cl)ccn2n1)[C@@H]1C[C@@H]1F [Example 30, (1S,2S)-N-(5-(4-chloro-3-fluoro-1H-pyrrolo[2,3-b]pyridin-5-yl)pyrazolo[1,5-a]pyridin-2-yl)-2-fluorocyclopropane-1-carboxamide]
20 | 8.77 | 101 | 3.1 | Cc1c(-c2ccn3nc(NC(=O)[C@@H]4C[C@@H]4F)cc3c2)cnc2[nH]ccc12 [Example 9, (1S,2S)-2-fluoro-N-(5-(4-methyl-1H-pyrrolo[2,3-b]pyridin-5-yl)pyrazolo[1,5-a]pyridin-2-yl)cyclopropane-1-carboxamide]
21 | 8.37 | 65.5 | 3.1 | Cc1c(-c2ccn3nc(NC(=O)[C@H]4C[C@H]4F)cc3c2)cnc2[nH]ccc12 [Example 20, (1R,2R)-2-fluoro-N-(5-(4-methyl-1H-pyrrolo[2,3-b]pyridin-5-yl)pyrazolo[1,5-a]pyridin-2-yl)cyclopropane-1-carboxamide]
